Patent US7211428B1, “Strain of Bacillus as a bioinoculant” (Council of Scientific and Industrial Research, priority 2004, dated 2007)

Tested on: geranium cuttings
Assay: Root initiation and survival of geranium cuttings after treatment
Assay type: in vivo, Pelargonium graveolens
Parameters: % survivality, Normal / % survivality, Two node / % survivality, Apical: concentration or dose not given beside the values
Conditions: for % survivality, Apical: apical cuttings; for % survivality, Normal: normal cuttings; for % survivality, Two node: two node cuttings
Excerpt: Geranium cuttings treated with Bacillus strain MTCC-5130, initiated rooting after 22–25 days of treatment, which was 5–7 days earlier than untreated control cuttings.

Indole butyric acid [IBA]
Root initiation (days after) (cuttings of Dec. 5, 2001): 28 days | % survivality, Apical (cuttings of Dec. 5, 2001): 100.0% | % survivality, Normal (cuttings of Dec. 5, 2001): 100% | % survivality, Two node (cuttings of Dec. 5, 2001): 100% | Root initiation (days after) (cuttings of Nov. 20, 2001): 27 days | % survivality, Apical (cuttings of Nov. 20, 2001): 95.8% | % survivality, Normal (cuttings of Nov. 20, 2001): 100% | % survivality, Two node (cuttings of Nov. 20, 2001): 69.2%
